Assay results as given in publication PMC8596838, “Xylose‐Configured Cyclophellitols as Selective Inhibitors for Glucocerebrosidase” (Chembiochem, 2021).
Where two headings read alike, the source gives them in different places.

Target: T1, GBA2 (Homo sapiens, UniProt Q9HCG7)
T1 construct: expressed in transfected cells; host or cells: HEK293T (GBA/GBA2 KO background for the fluorogenic assay; endogenous-GBA background with GBA2 and GBA3 overexpressed for ABPP and intact-cell assays)
T1 sequence (Q9HCG7 1-927): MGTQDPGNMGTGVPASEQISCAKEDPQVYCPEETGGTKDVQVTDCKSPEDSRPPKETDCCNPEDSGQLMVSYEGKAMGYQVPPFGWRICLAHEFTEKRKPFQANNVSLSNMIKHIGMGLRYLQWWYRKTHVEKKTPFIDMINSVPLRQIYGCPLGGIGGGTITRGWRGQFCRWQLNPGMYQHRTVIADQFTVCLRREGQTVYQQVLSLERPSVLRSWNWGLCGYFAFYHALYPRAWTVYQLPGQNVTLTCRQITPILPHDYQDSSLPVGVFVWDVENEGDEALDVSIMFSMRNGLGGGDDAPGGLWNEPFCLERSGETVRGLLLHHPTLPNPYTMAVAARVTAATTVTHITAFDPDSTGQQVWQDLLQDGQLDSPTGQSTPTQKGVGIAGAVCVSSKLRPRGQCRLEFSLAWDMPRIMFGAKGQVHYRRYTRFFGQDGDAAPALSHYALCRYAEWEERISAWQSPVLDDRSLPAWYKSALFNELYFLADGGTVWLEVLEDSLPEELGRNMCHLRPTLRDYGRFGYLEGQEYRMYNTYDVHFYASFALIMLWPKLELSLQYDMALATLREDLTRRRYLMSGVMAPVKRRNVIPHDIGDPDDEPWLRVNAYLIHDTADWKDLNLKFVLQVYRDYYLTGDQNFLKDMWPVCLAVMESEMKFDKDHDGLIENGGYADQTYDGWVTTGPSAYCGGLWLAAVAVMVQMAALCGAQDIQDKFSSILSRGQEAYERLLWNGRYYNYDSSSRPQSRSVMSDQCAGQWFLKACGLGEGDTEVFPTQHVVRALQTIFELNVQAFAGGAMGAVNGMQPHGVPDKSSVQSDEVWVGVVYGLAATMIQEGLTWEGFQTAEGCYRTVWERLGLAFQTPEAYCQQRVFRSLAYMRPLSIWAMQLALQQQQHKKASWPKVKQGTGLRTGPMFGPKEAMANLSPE
Assay: Fluorogenic substrate enzymatic assay, lysate of GBA/GBA2 KO HEK293T cells overexpressing GBA2
Format: biochemical
Settings: for (Ratio) GBA2/GBA / GBA2/GBA ratio, 3 h: IC50 ratio; for increase in GBA:GBA2 selectivity window compared to the conduritol analogue (13 or 14): IC50 ratio GBA2/GBA
Method: Enzyme activity assays: All assays were performed with lysates of HEK293T cells or zebrafish larvae in 96‐well plates at 37 °C. Samples were diluted with McIlvaine buffer (150 mM citric acid‐Na2HPO4) to a final volume of 25 μL, at pH appropriate for each enzyme. Assays were performed by incubating the samples with 100 μL 4‐methylumbelliferyl‐β‐D‐glucoside substrates diluted in McIlvaine buffer (with 0.1 % (w/v) bovine serum albumin (BSA)) for a period of 30 min or 3 h. The substrate mixtures used for each enzyme were as follows: GBA, 3.75 mM 4‐MU‐β‐D‐glucopyranoside (Glycosynth, Warrington Cheshire, UK) at pH 5.2, supplemented with 0.2 % (w/v) sodium taurocholate, 0.1 % (v/v) Triton X‐100, 0.1 % (w/v) bovine serum albumin (BSA); GBA2, 3.75 mM 4 MU‐β‐D‐glucopyranoside at pH 5.8; GBA3, 3.75 mM 4‐MU‐β‐D‐glucopyranoside at pH 6.0. After stopping the enzyme reaction with 200 μL 1 M NaOH‐glycine (pH 10.3), 4‐methylumbelliferone fluorescence was measured with a fluorimeter LS55 (Perkin Elmer, Waltham, MA, USA) with λEX 366 nm and λEM 445 nm. Enzyme activities were determined by subtraction of background (measured for incubations without enzyme). IC50 values were determined exactly as earlier described.[36]
The IC50 values were determined using a fluorogenic enzymatic assay. For GBA, 3.16 ng (53 fmol) of rhGBA, (recombinant human GBA, Imiglucerase) obtained from Sanofi Genzyme (Cambridge, MA, USA), was prepared in 12.5 μL McIlvaine buffer (150 mM, pH 5.2) supplemented with 0.1 % (v/v) Triton X‐100, and 0.2 % (w/v) sodium taurocholate, 0.1 % (w/v) bovine serum albumin (BSA). […] In the case of GBA2 or GBA3, lysates of GBA/GBA2 KO HEK293T cells overexpressing GBA2 or GBA3, respectively where used. The enzymatic activity of GBA, GBA2 and GBA3 were measured with 4MU‐β‐D‐glucoside substrate as described above.

[1] = incubation time 30 min, enzymatic assay, ±SD, n=3, read-out: In vitro apparent IC50 GBA2
[2] = 30 min incubation time, read-out: apparent IC50 GBA2
[3] = enzymatic assay performed for 3 h, n=3, read-out: In vitro apparent IC50 GBA2, 3 h

| Compound | (Ratio) GBA2/GBA (in vitro, 30 min) | IC50 [1] | IC50 [2] | increase in GBA:GBA2 selectivity window compared to the conduritol analogue (13 or 14) (in vitro 3 h) | GBA2/GBA ratio, 3 h (in vitro 3 h) | IC50 [3] | increase in inhibitory activity towards GBA2 of aziridines relative to epoxide analogues (in vitro 3 h) | potency against GBA2 compared to 2 (in vitro, 30 min) |
| --- | --- | --- | --- | --- | --- | --- | --- | --- |
| CN1/C(=C/C=C/C=C/C2=[N+](CCCCCC(=O)NCc3cn(CCCCCCCCN4[C@H]5[C@H](O)[C@@H](O)[C@H](O)C[C@H]54)nn3)c3ccccc3C2(C)C)C(C)(C)c2ccccc21 (some centres unmarked) [ABP 6] | 84 | 0.544 ± 0.11 µM |  |  |  |  |  |  |
| CN1/C(=C/C=C/C=C/C2=[N+](CCCCCC(=O)NCc3cn(C[C@@H]4[C@@H](O)[C@H](O)[C@@H](O)[C@@H]5O[C@H]45)nn3)c3ccccc3C2(C)C)C(C)(C)c2ccccc21 [ABP 9, reference compound] | > 111 |  |  |  |  |  |  |  |
| O[C@@H]1[C@@H](O)[C@H](O)C[C@H]2O[C@@H]12 [compound 1, xylo‐cyclophellitol] | >19 | > 50 µM | > 25 µM | seven‐fold increase | 272 | 122 ± 30.2 µM |  |  |
| O[C@@H]1[C@@H](O)[C@H](O)C[C@H]2N[C@@H]12 [compound 2, β‐D‐xylo‐Cyclophellitol aziridine] | 44 | 31.6 ± 0.926 µM | > 25 µM | three‐fold increase | 22 | 5.31 ± 0.12 µM | 10–20 fold |  |
| OC[C@@H]1[C@@H](O)[C@H](O)[C@@H](O)[C@@H]2O[C@H]12 [compound 3, cyclophellitol] | 0.4 | 0.148 ± 0.00751 µM |  |  |  |  |  |  |
| OC[C@@H]1[C@@H](O)[C@H](O)[C@@H](O)[C@@H]2N[C@H]12 [compound 4, cyclophellitol aziridine, reference compound] | 0.8 | 0.279 ± 0.0445 µM |  |  |  |  |  |  |
| [N-]=[N+]=NCCCCCCCCN1[C@H]2[C@H](O)[C@@H](O)[C@H](O)C[C@H]21 (some centres unmarked) [compound 5] | 5317 | 6.38 ± 1.15 µM |  |  |  |  |  | five‐fold higher |
